The subject of one assay is SH-SY5Y M-currents (KCNQ2, KCNQ3 and KCNQ5). Nature of the assay: SH-SY5Y native cell line FLIPR assay (voltage-sensitive dye DiBAC). The class given is cell-based, mouse neuroblastoma, rat glioma hybrid cell line. Conditions: FLIPR assay, SH-SY5Y native cell line; Table 1; read-out: SH-SY5Y EC50. From the text:
SH-SY5Y cells, a mouse neuroblastoma, rat glioma hybrid cell line, functionally express M-currents (Robbins et al., J. Physiol. 451: 159-85 (1992). SH-SY5Y M-currents are likely comprised, at least in part, of KCNQ2, KCNQ3 and KCNQ5, since these genes are reportedly robustly expressed in differentiated SH-SY5Y cells (Selyanko et al., J. Neurosci. 19(18): 7742-56 (1999); Schroeder et al., J. Biol. Chem. 275(31): 24089-95 (2000)) and KCNQ3 dominant-negative constructs reduce M-current density in these cells (Selyanko et al., J. Neurosci. 22(5): RC212 (2002).
SH-SY5Y were maintained in DMEM (high glucose) supplemented with 10% fetal bovine serum, 0.05 mM pyridoxine, 0.1 mM hypoxanthine, 400 nM aminopterin, […], 50 μgml^−1 gentamycin and 10 mM HEPES, in an incubator at 37° C. with a humidified atmosphere of 5% CO2. Cells were plated in 96 well plates differentiated by addition of 10 μM PGE1 and 50 μM isomethylbutylxanthine to the growth media prior to study.
Differentiated SH-SY5Y cells were loaded with voltage-sensitive dye by incubation in Earls Balanced Salt Solution (EBSS) containing […] DiBAC for 1 h. Following loading, drug solution containing […] DiBAC was added to each well. Changes in fluorescence were measured every 30 s for 25 min. The maximum change in fluorescence was measured and expressed as a percentage of the maximum response obtained in the presence of a positive control agent.
Usually EC50 stands for the concentration at which the effect is half-maximal. Consider `C[C@@H](CC(=O)Nc1nc2ccc(C(F)(F)F)cn2c1C1CC1)C(F)(F)F` [Compound 90, (S)—N-(3-cyclopropyl-6-(trifluoromethyl)imidazo[1,2-a]pyridin-2-yl)-4,4,4-trifluoro-3-methylbutanamide], for which the concentration giving a half-maximal response (EC50) lay in the range of 0.5 to 3 µM.

Turning to `Cc1ccc2nc(NC(=O)CC(C)(C)C)c(C3CC3)n2n1` [Compound 74, N-(3-cyclopropyl-6-methylimidazo[1,2-b]pyridazin-2-yl)-3,3-dimethylbutanamide], the EC50 lay in the range of 0.5 to 3 µM.

With `CC(CC(=O)Nc1nc2ccc(C(F)(F)F)cn2c1C1CC1)C(F)(F)F` (centres unmarked) [Compound 69, N-(3-cyclopropyl-6-(trifluoromethyl)imidazo[1,2-a]pyridin-2-yl)-4,4,4-trifluoro-3-methylbutanamide], the EC50 was below 0.5 µM.

On to `CC(C)CCc1c(NC(=O)Cc2cccc(Cl)c2)nc2ccc(C(F)(F)F)cn12` [Compound 42, 2-(3-chlorophenyl)-N-(3-isopentyl-6-(trifluoromethyl)imidazo[1,2-a]pyridin-2-yl)acetamide], for which the half-maximal effective concentration (EC50) was below 0.5 µM.

Staying with this assay, now noted: FLIPR assay, SH-SY5Y native cell line; Table 2; read-out: SH-SY5Y EC50.
For the compound `CC(C(=O)Nc1nc2ccc(F)cn2c1-c1ccc(C(F)(F)F)cc1)C(C)(C)C` (centres unmarked) [Compound 234, N-(6-fluoro-3-(4-(trifluoromethyl)phenyl)imidazo[1,2-a]pyridin-2-yl)-2,3,3-trimethylbutanamide], the EC50 was below 0.5 µM.

Regarding `CC1(CC(=O)Nc2nc3ccc(F)cn3c2-c2cccc(Cl)c2)CCCC1` [Compound 286, N-(3-(3-chlorophenyl)-6-fluoroimidazo[1,2-a]pyridin-2-yl)-2-(1-methylcyclopentyl)acetamide], the 50% effective concentration (EC50) is below 0.5 µM.

With `O=C(CCC(F)(F)F)Nc1nc2ccc(F)cn2c1-c1ccccc1` [Compound 97, 4,4,4-trifluoro-N-(6-fluoro-3-phenylimidazo[1,2-a]pyridin-2-yl)butanamide], the EC50 lay within 0.5 to 3 µM.

As to `O=C(CCC1CCCC1)Nc1nc2ccc(F)cn2c1-c1ccc(C(F)(F)F)cc1` [Compound 220, 3-cyclopentyl-N-(6-fluoro-3-(4-(trifluoromethyl)phenyl)imidazo[1,2-a]pyridin-2-yl)propanamide], the half-maximal effective concentration (EC50) was below 0.5 µM.

`CC(=O)O[C@H](C(=O)Nc1nc2ccc(F)cn2c1-c1ccc(C(F)(F)F)cc1)C(C)(C)C` [Compound 340, (S)-1-(6-fluoro-3-(4-(trifluoromethyl)phenyl)imidazo[1,2-a]pyridin-2-ylamino)-3,3-dimethyl-1-oxobutan-2-yl acetate]: the 50% effective concentration (EC50) fell in the range of 3 to 10 µM.

Take `O=C(Nc1nc2ccc(F)cn2c1-c1ccc(OC(F)(F)F)c(F)c1)C1CCC1` [Compound 334, N-(6-fluoro-3-(3-fluoro-4-(trifluoromethoxy)phenyl)imidazo[1,2-a]pyridin-2-yl)cyclobutanecarboxamide]: the EC50 lay in the range of 0.5 to 3 µM.

As for `O=C(CCC(F)(F)F)Nc1nc2ccc(F)cn2c1-c1cccc(OC(F)(F)F)c1` [Compound 275, 4,4,4-trifluoro-N-(6-fluoro-3-(3-(trifluoromethoxy)phenyl)imidazo[1,2-a]pyridin-2-yl)butanamide], the EC50 was 0.5 to 3 µM.

In the case of `Cc1ccc(-c2c(NC(=O)CC(C)(C)C)nc3ccc(F)cn23)cc1` [Compound 273, N-(6-fluoro-3-p-tolylimidazo[1,2-a]pyridin-2-yl)-3,3-dimethylbutanamide], the concentration for a half-maximal effect (EC50) was 0.5 to 3 µM.

Consider `O=C(Cc1ccccc1)Nc1nc2cc(C(F)(F)F)ccn2c1-c1ccc(F)cc1F` [Compound 124, N-(3-(2,4-difluorophenyl)-7-(trifluoromethyl)imidazo[1,2-a]pyridin-2-yl)-2-phenyl acetamide], for which the EC50 was 0.5 to 3 µM.

On to `O=C(Cc1ccc(F)cc1)Nc1nc2ncccn2c1-c1cccc(Cl)c1` [Compound 330, N-(3-(3-chlorophenyl)imidazo[1,2-a]pyrimidin-2-yl)-2-(4-fluorophenyl)acetamide], for which the half-maximal effective concentration (EC50) was 3 to 10 µM.

Turning to `CC(CC(=O)Nc1nc2ccccn2c1-c1cccc(OC(F)(F)F)c1)C(F)(F)F` (centres unmarked) [Compound 343, 4,4,4-trifluoro-3-methyl-N-(3-(3-(trifluoromethoxy)phenyl)imidazo[1,2-a]pyridin-2-yl)butanamide], the concentration for a half-maximal effect (EC50) was in the range of 0.5 to 3 µM.

Take `Cc1ccn2c(-c3ccc(F)cc3)c(NC(=O)CC(C)(C)C)nc2c1` [Compound 169, N-(3-(4-fluorophenyl)-7-methylimidazo[1,2-a]pyridin-2-yl)-3,3-dimethylbutanamide]: the EC50 is below 0.5 µM.

For the compound `O=C(Cc1ccccc1)Nc1nc2ccc(F)cn2c1-c1ccccc1` [Compound 96, N-(6-fluoro-3-phenylimidazo[1,2-a]pyridin-2-yl)-2-phenylacetamide], the concentration giving a half-maximal response (EC50) was 0.5 to 3 µM.

As to `O=C(NCc1ccc(F)cc1)Nc1nc2ccc(F)cn2c1-c1ccc(C(F)(F)F)cc1` [Compound 214, 1-(6-fluoro-3-(4-(trifluoromethyl)phenyl)imidazo[1,2-a]pyridin-2-yl)-3-(4-fluorobenzyl)urea], the EC50 was in the range of 0.5 to 3 µM.

For the compound `O=C(CC1CCCCC1)Nc1nc2ccc(F)cn2c1-c1ccc(C(F)(F)F)cc1` [Compound 157, 2-cyclohexyl-N-(6-fluoro-3-(4-(trifluoromethyl)phenyl)imidazo[1,2-a]pyridin-2-yl)acetamide], the EC50 is below 0.5 µM.

In the case of `CC(CC(=O)Nc1nc2ccc(F)cn2c1-c1ccc(F)cc1)CC(C)(C)C` (centres unmarked) [Compound 139, N-(6-fluoro-3-(4-fluorophenyl)imidazo[1,2-a]pyridin-2-yl)-3,5,5-trimethylhexanamide], the EC50 was below 0.5 µM.

Consider `O=C(CCC1CC1)Nc1nc2ccc(F)cn2c1-c1cccc(C(F)(F)F)c1` [Compound 280, 3-cyclopropyl-N-(6-fluoro-3-(3-(trifluoromethyl)phenyl)imidazo[1,2-a]pyridin-2-yl)propanamide], for which the half-maximal effective concentration (EC50) lay in the range of 0.5 to 3 µM.

On to `O=C(COCc1ccccc1)Nc1nc2ccc(F)cn2c1-c1ccc(OC(F)(F)F)cc1` [Compound 237, 2-(benzyloxy)-N-(6-fluoro-3-(4-(trifluoromethoxy)phenyl)imidazo[1,2-a]pyridin-2-yl)acetamide], for which the EC50 lay within 3 to 10 µM.

Take `CC(C)(C)CC(=O)Nc1nc2ccc(F)cn2c1-c1ccc(C#N)cc1` [Compound 177, N-(3-(4-cyanophenyl)-6-fluoroimidazo[1,2-a]pyridin-2-yl)-3,3-dimethylbutanamide]: the EC50 lay within 0.5 to 3 µM.

Staying with this assay, now noted: SH-SY5Y native cell line, FLIPR assay (Table 3); read-out: SH-SY5Y EC50.
For the compound `Cc1ccc2nc(NC(=O)CC(C)(C)C)c(-c3cc(C(F)(F)F)ccn3)n2n1` [Compound 394, 3,3-dimethyl-N-(6-methyl-3-(4-(trifluoromethyl)pyridin-2-yl)imidazo[1,2-b]pyridazin-2-yl)butanamide], the EC50 fell in the range of 3 to 10 µM.

For `CC(C)(C)CC(=O)Nc1nc2ccc(F)cn2c1-c1ccc(F)cn1` [Compound 352, N-(6-fluoro-3-(5-fluoropyridin-2-yl)imidazo[1,2-a]pyridin-2-yl)-3,3-dimethylbutanamide], the EC50 lay within 0.5 to 3 µM.

Turning to `O=C(Nc1nc2ccccn2c1-c1cc(C(F)(F)F)ccn1)C1CCC(F)(F)CC1` [Compound 411, 4,4-difluoro-N-(3-(4-(trifluoromethyl)pyridin-2-yl)imidazo[1,2-a]pyridin-2-yl)cyclohexanecarboxamide], the EC50 is below 0.5 µM.

With `CC(C)n1cc(-c2c(NC(=O)CC(C)(C)C)nc3ccc(F)cn23)cn1` [Compound 370, N-(6-fluoro-3-(1-isopropyl-1H-pyrazol-4-yl)imidazo[1,2-a]pyridin-2-yl)-3,3-dimethylbutanamide], the EC50 lay within 3 to 10 µM.

Take `Cc1nc(-c2c(NC(=O)CC(C)(C)C)nc3ccccn23)cs1` [Compound 416, 3,3-dimethyl-N-(3-(2-methylthiazol-4-yl)imidazo[1,2-a]pyridin-2-yl)butanamide]: the 50% effective concentration (EC50) lay in the range of 3 to 10 µM.

On to `CC(C)(C)CC(=O)N(C(=O)CC(C)(C)C)c1nc2ccc(F)cn2c1-c1nc2ccccc2s1` [Compound 358, N-(3-(benzo[d]thiazol-2-yl)-6-fluoroimidazo[1,2-a]pyridin-2-yl)-N-(3,3-dimethylbutanoyl)-3,3-dimethylbutanamide], for which the EC50 lay within 3 to 10 µM.

On to `CC1(CC(=O)Nc2nc3ccc(F)cn3c2-c2nc3ccccc3s2)CCCC1` [Compound 375, N-(3-(benzo[d]thiazol-2-yl)-6-fluoroimidazo[1,2-a]pyridin-2-yl)-2-(1-methylcyclopentyl)acetamide], for which the EC50 is below 0.5 µM.

As for `Cc1ccc2nc(NC(=O)Cc3ccc(F)cc3)c(-c3cc(C(F)(F)F)ccn3)n2n1` [Compound 395, 2-(4-fluorophenyl)-N-(6-methyl-3-(4-(trifluoromethyl)pyridin-2-yl)imidazo[1,2-b]pyridazin-2-yl)acetamide], the EC50 fell in the range of 3 to 10 µM.

Still in this assay, the particulars now being: SH-SY5Y native cell line, FLIPR assay (Table 6); read-out: SH-SY5Y EC50.
As to `CC(C)(C)Cc1c(NC(=O)CC(C)(C)C(F)(F)F)nc2ccc(C(F)(F)F)cn12` [Compound 440, 4,4,4-trifluoro-3,3-dimethyl-N-(3-neopentyl-6-(trifluoromethyl)imidazo[1,2-a]pyridin-2-yl)butanamide], the 50% effective concentration (EC50) was below 0.5 µM.
